According to PMC11345829, “Discovery of Potent Isoquinolinequinone N-Oxides to Overcome Cancer Multidrug Resistance” (Journal of Medicinal Chemistry, 2024):

Tests used:
A549 = assay: NCI60 five-dose GI50 (NCI data); type: cell-based; conditions: Homo sapiens, SI Table S20
Source text: The concentration−response curve generated enables the determination of three criteria, GI50 (drug concentration at which 50% of cell growth is inhibited), total growth inhibition (TGI) and LC50 (drug concentration at which 50% of tumor cells are killed) which can be used to compare effectiveness against any compound tested in the screen since its inception.
S2.1 NCI Screening Assay Experimental details
NCI Screening Assay Experimental: Cancer cell growth assays (NCI60 screening) 5,6 […]
Unbound dye was […]
removed with five washes of 1% acetic acid, and the plates were allowed to air dry. The dye was then resolubilised in Tris buffer, and the colorimetric absorbance was measured (515 nm). Growth inhibition was measured relative to the response generated from proliferating cells cultured under identical conditions for 48 h. Data from one-dose experiments pertains to the percentage growth at […]
Five-dose study: Serial 5 × 10-fold dilution from an initial DMSO stock solution was performed, prior to incubation at each individual concentration (10 nM, 100 nM, 1 μM, 10 μM and 100 μM). Using seven absorbance measurements (time zero (Tz), control growth (C), and test growth in the presence of drug at the five concentration levels (Ti)), the percentage growth was calculated at each of the drug concentrations levels. […] Three dose response parameters were calculated for each experimental agent. […]

MCF12A = assay: SRB cytotoxicity assay, nontumorigenic breast cells; type: cell-based, human; conditions: 48 h at GI50 concentration obtained on NCI-H460 cells
Protocol: Selectivity over nontumorigenic cells is a key requirement in cancer therapy so the cytotoxicity of 25 against nontumorigenic lung fibroblast (MRC-5) and breast cell lines (MCF12A) was evaluated with the SRB assay.
Compound 25 was also tested on the nontumorigenic MCF-12A human breast epithelial cell line. […] Following this treatment, the SRB assay was performed as described above.
S3.5 Effect of 25 on the non-tumorigenic MCF12A cell line (Figure S66)
Figure S66 Cytotoxic effect of compound 25 on the non-tumorigenic MCF12A cell line, analysed by the
obtained in the NCI-H460 and NCI-H460/R pair of counterpart cell lines. Results are presented as the
% of cell growth relative to the control cells (treated with the compound vehicle, DMSO at the % used
Data are expressed as mean ± SEM from 3 independent experiments.
(§1) (1 picture or pasted object on this page, not shown here)

NCI-H460 cells = assay: Trypan blue exclusion assay; type: cell-based, human; conditions: 48 h; GI50 (0.35 μM) and 2 × GI50 (0.7 μM)
Protocol: After this treatment, cells were mixed with 0.2% (v/v) trypan blue dye (Merck LifeScience) and counted on an hemocytometer (Neubauer Chamber).
S3.4 Effect of 25 on the viable cell number of NCI-H460 cells (Figure S65)
Figure S65 Effect of 25 on the viable cell number of NCI-H460 cells, determined with the Trypan blue exclusion assay. Cells were incubated for 48 h with medium, DMSO (vehicle 1: % of vehicle used at the GI50 concentration of compound; vehicle 2: % of vehicle used at the 2GI50 concentration of compound), […]
compound 25. Results are the mean ± SEM from at least three independent experiments. # p ≤ 0.05 and **** p ≤ 0.0001, when comparing DMSO vs. compound treatment.
as §1

DLD1 spheroids = assay: Cell Titer-Glo 3D spheroid viability assay; type: cell-based, human; conditions: 48 h; 25 at 0.61 and 1.22 μM
Source text: (§2) Figure 12 Effect of compound 25 on the viability of spheroids established from two counterpart pairs of sensitive and MDR cell lines, from NSCLC (NCI-H460 and NCI-H460/R) and colorectal cancer (DLD1 and DLD1-TxR), using MicroTissue 3D Petri dishes. […] (B) Effect of compound 25 on the viability of NCI-H460 spheroids analyzed by Cell Titer-Glo 3D viability assay. (C) Effect of compound 25 on the viability of NCI-H460/R spheroids analyzed with the Cell Titer-Glo 3D viability assay. Results are presented as the % of luciferase luminescence relative to the “blank” cells (medium). […] (E) Effect of compound 25 on the viability of DLD1 spheroids analyzed by Cell Titer-Glo 3D viability assay. (F) Effect of compound 25 on the viability of DLD1-TxR spheroids analyzed with the Cell Titer-Glo 3D viability assay. Data are expressed as mean ± SEM from 3 independent experiments. * p ≤ 0.05 and ** p ≤ 0.01, when comparing DMSO vs compound treatment.
(§3) Spheroid formation was conducted in 12-series agarose 3D Petri Dish micromolds (MicroTissues Technology, MicroTissues Inc., Sigma-Aldrich). The agarose micromolds were prepared using 1% agarose in a 0.9% NaCl solution and then placed in 12-well plates and equilibrated with RPMI supplemented with 10% FBS for at least 2 h before cell seeding. Cell suspensions corresponding to 500 cells per spheroid of the NSCLC cell lines (NCI-H460 and NCI-H460/R), and 1000 cells per spheroid of the colorectal cancer cell lines (DLD1 and DLD1-TxR) were seeded in the corresponding micromolds. The choice of cell seeding concentration was based on a previous optimization assay (data not shown), ensuring that at the end of the assay the spheroids would have a size of around 400 μm. A 20 min incubation period was used for cells to settle into the micromolds and additional medium was finally added to the wells. Spheroid formation was monitored with the Leica DMi1 microscope. […] At the end of the treatment, images from at least 8 different spheroids per condition were captured on the Leica Dmi1 microscope, and posteriorly analyzed with the automated open-source software AnaSP.[82] Spheroid parameters, such as equivalent diameter, circularity, and compactness, were calculated.
(§4) Spheroid viability was determined through the luminescence-based Cell Titer-Glo 3D cell viability assay (Promega). Spheroids grown on MicroTissues 3D Petri Dish micromolds were exposed to the treatments, as described in the previous section. Then, the spheroids were transferred into 96-well plates in 50 μL of RPMI medium. […] The plate was then incubated in the dark for 5 min with agitation and allowed to rest for 25 min before luminescence measurement. Luminescence was quantified using the microplate reader Synergy MX coupled with the GEN5 software. […]

DLD1-TxR spheroids = assay: Cell Titer-Glo 3D spheroid viability assay; type: cell-based, human; conditions: 48 h; 25 at 0.61 and 1.22 μM
Source text: as §2, §3, §4

`COC(=O)c1c2c(c[n+]([O-])c1C)C(=O)C=C(NCc1ccccc1)C2=O` [Compound 25] was tested, and the GI50 (A549) was 232 nM, the “effect on MCF12A growth” value (MCF12A) was “did not cause significant alterations in the growth of these nontumorigenic cells” and the “percentage of viable cells” value (NCI-H460 cells) was “significant decrease in the percentage of viable cells”. The “viability of DLD1 spheroids” value (DLD1 spheroids) was “significant decrease in the viability of the spheroids” and the “viability of DLD1-TxR spheroids” value (DLD1-TxR spheroids) was “significant decrease in the viability of the spheroids”.
